Where a name gives a salt, the structure may show the parent alone.
Test system: Escherichia coli ATCC 25922
Assay: 50% growth inhibitory concentration (IC50) determination, Iso-Sensitest broth dilution
Format: cell-based
Conditions: Escherichia coli, ATCC25922, 16 h, strain Escherichia coli ATCC 25922; 10-point broth dilution, optical density at 600 nm over 16 h; read-out: Escherichia coli growth inhibition IC50
Outline: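 10-point twofold Iso-Sensitest broth dilution (e.g. 50 to 0.097 μM final) with DMSO stocks, incubated at 35±2° C. Growth followed by OD 600 nm every 20 min over 16 h; IC50 derived from growth inhibition during logarithmic phase.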

Row | SMILES | IC50 [nM]
1 | O=C1COc2ccc(N3CC(CCNCC4Cc5cccc(Cl)c5C4)OC3=O)nc2N1 (stereo not drawn) [Example 1, 6-[5-[2-[(4-Chloro-2,3-dihydro-1H-inden-2-yl)methylamino]ethyl]-2-oxo-1,3-oxazolidin-3-yl]-4H-pyrido[3,2-b][1,4]oxazin-3-one; formic acid] | < 97.7
2 | O=C1COc2ccc(N3CC(CCCNCC4Cc5cccc(Cl)c5C4)OC3=O)nc2N1 (stereo not drawn) [Example 2, 6-[5-[3-[(4-chloro-2,3-dihydro-1H-inden-2-yl)methylamino]propyl]-2-oxo-1,3-oxazolidin-3-yl]-4H-pyrido[3,2-b][1,4]oxazin-3-one] | 332
3 | O=C1COc2ccc(N3CC(CCNC4Cc5cccc(Cl)c5C4)OC3=O)nc2N1 (stereo not drawn) [Example 3, 6-[5-[2-[(4-chloro-2,3-dihydro-1H-inden-2-yl)amino]ethyl]-2-oxo-1,3-oxazolidin-3-yl]-4H-pyrido[3,2-b][1,4]oxazin-3-one hydrochloride] | 940
4 | O=C1COc2ccc(N3CC(CCCNC4Cc5cccc(Cl)c5C4)OC3=O)nc2N1 (stereo not drawn) [Example 4, 6-[5-[3-[(4-chloro-2,3-dihydro-1H-inden-2-yl)amino]propyl]-2-oxo-1,3-oxazolidin-3-yl]-4H-pyrido[3,2-b][1,4]oxazin-3-one] | < 97.7
5 | N#Cc1cccc2c1CC(CNCCC1CN(c3ccc4c(n3)NC(=O)CO4)C(=O)O1)C2 (stereo not drawn) [Example 5, 2-[[2-[2-oxo-3-(3-oxo-4H-pyrido[3,2-b][1,4]oxazin-6-yl)-1,3-oxazolidin-5-yl]ethylamino]methyl]-2,3-dihydro-1H-indene-4-carbonitrile] | < 97.7
6 | O=C1COc2ccc(N3CC(CCCNC4Cc5cccc(F)c5C4)OC3=O)nc2N1 (stereo not drawn) [Example 8, 6-[5-[3-[(4-fluoro-2,3-dihydro-1H-inden-2-yl)amino]propyl]-2-oxo-1,3-oxazolidin-3-yl]-4H-pyrido[3,2-b][1,4]oxazin-3-one; formic acid] | 167
7 | O=C1COc2ccc(N3CC(CCCNC4Cc5ccccc5C4)OC3=O)nc2N1 (stereo not drawn) [Example 9, 6-[5-[3-(2,3-dihydro-1H-inden-2-ylamino)propyl]-2-oxo-1,3-oxazolidin-3-yl]-4H-pyrido[3,2-b][1,4]oxazin-3-one; formic acid] | 439
8 | O=C1COc2ccc(N3CC(CCCNC4Cc5ccc(Cl)cc5C4)OC3=O)nc2N1 (stereo not drawn) [Example 10, 6-[5-[3-[(5-chloro-2,3-dihydro-1H-inden-2-yl)amino]propyl]-2-oxo-1,3-oxazolidin-3-yl]-4H-pyrido[3,2-b][1,4]oxazin-3-one; formic acid] | 447
9 | O=C1COc2ccc(N3CC(CCNC4Cc5ccc(Cl)cc5C4)OC3=O)nc2N1 (stereo not drawn) [Example 11, 6-[5-[2-[(5-chloro-2,3-dihydro-1H-inden-2-yl)amino]ethyl]-2-oxo-1,3-oxazolidin-3-yl]-4H-pyrido[3,2-b][1,4]oxazin-3-one] | 2400
10 | O=C1COc2ccc(N3CC(CCCNC4Cc5ccc(F)cc5C4)OC3=O)nc2N1 (stereo not drawn) [Example 12, 6-[5-[3-[(5-fluoro-2,3-dihydro-1H-inden-2-yl)amino]propyl]-2-oxo-1,3-oxazolidin-3-yl]-4H-pyrido[3,2-b][1,4]oxazin-3-one; formic acid] | 471
11 | N#Cc1cccc2c1CC(NCCCC1CN(c3ccc4c(n3)NC(=O)CO4)C(=O)O1)C2 (stereo not drawn) [Example 13, 2-[3-[2-oxo-3-(3-oxo-4H-pyrido[3,2-b] [1,4]oxazin-6-yl)-1,3-oxazolidin-5-yl]propylamino]-2,3-dihydro-1H-indene-4-carbonitrile; formic acid] | < 97.7
12 | N#Cc1cccc2c1CC(N[C@H]1C[C@H](C3CN(c4ccc5c(n4)NC(=O)CO5)C(=O)O3)C1)C2 (stereo partly drawn) [Example 14, 2-[[trans-3-[2-oxo-3-(3-oxo-4H-pyrido[3,2-b][1,4]oxazin-6-yl)-1,3-oxazolidin-5-yl]cyclobutyl]amino]-2,3-dihydro-1H-indene-4-carbonitrile] | 415
13 | O=C1COc2ccc(N3CC(CCNCC4Cc5cccc(Cl)c5C4)OC3=O)cc2N1 (stereo not drawn) [Example 15, 6-[5-[2-[(4-chloro-2,3-dihydro-1H-inden-2-yl)methylamino]ethyl]-2-oxo-1,3-oxazolidin-3-yl]-4H-1,4-benzoxazin-3-one; formic acid] | 188
14 | O=C1COc2ccc(N3CC([C@H]4C[C@@H](NC5Cc6cccc(Cl)c6C5)C4)OC3=O)nc2N1 (stereo partly drawn) [Example 16, 6-[5-[cis-3-[(4-chloro-2,3-dihydro-1H-inden-2-yl)amino]cyclobutyl]-2-oxo-1,3-oxazolidin-3-yl]-4H-pyrido[3,2-b][1,4]oxazin-3-one; formic acid] | 840
15 | O=C1COc2ccc(N3CC([C@H]4C[C@H](NC5Cc6cccc(Cl)c6C5)C4)OC3=O)nc2N1 (stereo partly drawn) [Example 17, 6-[5-[trans-3-[(4-chloro-2,3-dihydro-1H-inden-2-yl)amino]cyclobutyl]-2-oxo-1,3-oxazolidin-3-yl]-4H-pyrido[3,2-b][1,4]oxazin-3-one] | 823
16 | N#Cc1cccc2c1CC(CNCCC1CN(c3ccc4c(c3)NC(=O)CO4)C(=O)O1)C2 (stereo not drawn) [Example 18, 2-[[2-[2-oxo-3-(3-oxo-4H-1,4-benzoxazin-6-yl)-1,3-oxazolidin-5-yl]ethylamino]methyl]-2,3-dihydro-1H-indene-4-carbonitrile; formic acid] | < 97.7
17 | N#Cc1cccc2c1CC(N[C@H]1C[C@@H](C3CN(c4ccc5c(n4)NC(=O)CO5)C(=O)O3)C1)C2 (stereo partly drawn) [Example 19, 2-[[cis-3-[2-oxo-3-(3-oxo-4H-pyrido[3,2-b][1,4]oxazin-6-yl)-1,3-oxazolidin-5-yl]cyclobutyl]amino]-2,3-dihydro-1H-indene-4-carbonitrile; formic acid] | 449
18 | O=C1COc2ccc(N3CC(CCNCCC4Cc5cccc(Cl)c5C4)OC3=O)nc2N1 (stereo not drawn) [Example 20, 6-[5-[2-[2-(4-chloro-2,3-dihydro-1H-inden-2-yl)ethylamino]ethyl]-2-oxo-1,3-oxazolidin-3-yl]-4H-pyrido[3,2-b][1,4]oxazin-3-one; formic acid] | 139
19 | O=C1COc2ccc(N3CC(CNCC4Cc5cccc(Cl)c5C4)OC3=O)nc2N1 (stereo not drawn) [Example 21, 6-[5-[[(4-chloro-2,3-dihydro-1H-inden-2-yl)methylamino]methyl]-2-oxo-1,3-oxazolidin-3-yl]-4H-pyrido[3,2-b][1,4]oxazin-3-one; formic acid] | 453
20 | O=C1COc2ccc(N3CC(CNC4Cc5cccc(Cl)c5C4)OC3=O)nc2N1 (stereo not drawn) [Example 22, 6-[5-[[(4-chloro-2,3-dihydro-1H-inden-2-yl)amino]methyl]-2-oxo-1,3-oxazolidin-3-yl]-4H-pyrido[3,2-b][1,4]oxazin-3-one] | 8530
21 | O=C1COc2ccc(N3C[C@H](NC4CC(NC5Cc6cccc(F)c6C5)C4)CC3=O)nc2N1 (stereo partly drawn) [Example 23, 6-[(4R)-4-[[3-[(4-fluoro-2,3-dihydro-1H-inden-2-yl)amino]cyclobutyl]amino]-2-oxopyrrolidin-1-yl]-4H-pyrido[3,2-b][1,4]oxazin-3-one; formic acid] | 2170
22 | O=C1COc2ccc(N3C[C@@H](NC4CC(NC5Cc6cccc(F)c6C5)C4)CC3=O)nc2N1 (stereo partly drawn) [Example 24, 6-[(4S)-4-[[3-[(4-fluoro-2,3-dihydro-1H-inden-2-yl)amino]cyclobutyl]amino]-2-oxopyrrolidin-1-yl]-4H-pyrido[3,2-b][1,4]oxazin-3-one] | 1810
23 | O=C1COc2ccc(N3CC(CNC4Cc5ccc(Cl)cc5C4)OC3=O)nc2N1 (stereo not drawn) [Example 25, 6-[5-[[(5-chloro-2,3-dihydro-1H-inden-2-yl)amino]methyl]-2-oxo-1,3-oxazolidin-3-yl]-4H-pyrido[3,2-b] [1,4]oxazin-3-one] | 4070
24 | O=C1COc2ccc(N3CC(CNCCC4Cc5cccc(Cl)c5C4)OC3=O)nc2N1 (stereo not drawn) [Example 26, 6-[5-[ [2-(4-chloro-2,3-dihydro-1H-inden-2-yl)ethylamino]methyl]-2-oxo-1,3-oxazolidin-3-yl]-4H-pyrido[3,2-b][1,4]oxazin-3-one; formic acid] | < 97.7
25 | Cc1ccnc2c1CC(NCCCC1CN(c3ccc4c(n3)NC(=O)CO4)C(=O)O1)C2 (stereo not drawn) [Example 27, 6-[5-[3-[(4-methyl-6,7-dihydro-5H-cyclopenta[b]pyridin-6-yl)amino]propyl]-2-oxo-1,3-oxazolidin-3-yl]-4H-pyrido[3,2-b][1,4]oxazin-3-one] | 582
26 | N#Cc1cccc2c1CC(CN1CCC3(CC1)CN(c1ccc4c(n1)NC(=O)CO4)C(=O)O3)C2 (stereo not drawn) [Example 28, 2-[ [2-oxo-3-(3-oxo-4H-pyrido[3,2-b] [1,4]oxazin-6-yl)-1-oxa-3,8-diazaspiro[4.5]decan-8-yl]methyl]-2,3-dihydro-1H-indene-4-carbonitrile] | < 97.7
27 | CC(C)(CC1CN(c2ccc3c(n2)NC(=O)CO3)C(=O)O1)NCC1Cc2cccc(C#N)c2C1 (stereo not drawn) [Example 29, 2-[[[2-methyl-1-[2-oxo-3-(3-oxo-4H-pyrido[3,2-b][1,4]oxazin-6-yl)-1,3-oxazolidin-5-yl]propan-2-yl]amino]methyl]-2,3-dihydro-1H-indene-4-carbonitrile] | 945
28 | CC(C)(CC1CN(c2ccc3c(n2)NC(=O)CO3)C(=O)O1)NCC1Cc2ccnc(Cl)c2C1 (stereo not drawn) [Example 30, 6-[5-[2-[(1-chloro-6,7-dihydro-5H-cyclopenta[c]pyridin-6-yl)methylamino]-2-methylpropyl]-2-oxo-1,3-oxazolidin-3-yl]-4H-pyrido[3,2-b][1,4]oxazin-3-one; formic acid] | 3400
29 | N#Cc1cccc2c1CC(CCN1CC3(C1)CN(c1ccc4c(n1)NC(=O)CO4)C(=O)O3)C2 (stereo not drawn) [Example 33, 2-[2-[6-oxo-7-(3-oxo-4H-pyrido[3,2-b][1,4]oxazin-6-yl)-5-oxa-2,7-diazaspiro[3.4]octan-2-yl]ethyl]-2,3-dihydro-1H-indene-4-carbonitrile] | < 97.7
30 | N#Cc1cccc2c1CC(N[C@H]1CC[C@H](C3CN(c4ccc5c(n4)NC(=O)CO5)C(=O)O3)CC1)C2 (stereo partly drawn) [Example 34, 2-[[trans-4-[2-oxo-3-(3-oxo-4H-pyrido[3,2-b][1,4]oxazin-6-yl)-1,3-oxazolidin-5-yl]cyclohexyl]amino]-2,3-dihydro-1H-indene-4-carbonitrile; formic acid] | 1660

Source: patent publication US20230167127A1, “COMPOUNDS AND THEIR USE IN THE TREATMENT OF BACTERIAL INFECTION” (Hoffmann-La Roche Inc., priority 2020, published 2023)
